Experimental data taken from patent publication US8921376B2, “Pyrrolopyridines useful as inhibitors of protein kinase” (Vertex Pharmaceuticals Incorporated, priority 2005, dated 2014).

Legend:
Assay type in all cases: biochemical
Conditions in all cases: Table 6; enzyme inhibition data (Ki)
JAK2 = JAK2 (Homo sapiens, UniProt O60674); assay: JAK2 inhibition assay (as Example 3 with JAK-2 enzyme)
How it was run: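 In HEPES pH 7.4 buffer with 10 mM MgCl2, 1 mM DTT, 25 mM NaCl and 0.01% BSA, JAK2 enzyme phosphorylated poly(Glu)4Tyr (final 15 μM) using 33P-ATP (final 12 μM) for 20 min at room temperature (25 °C). Reactions stopped with TCA; incorporated 33P measured by scintillation after filtration.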

ROCK I = ROCK I (Homo sapiens, UniProt Q13464); assay: ROCK-I inhibition assay (radioactive enzyme assay, MBP substrate)
How it was run: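 Human ROCK at 5 nM phosphorylated 27 μM myelin basic protein with 13 μM [γ-33P]ATP (final) in HEPES pH 7.5, MgCl2, NaCl, DTT and 1.5% DMSO. Reactions ran 2 h at room temperature before TCA quench and filter-plate scintillation counting. After background subtraction, data were fit to give Ki(app).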

JAK3 = biological target: T1, JAK3 (Homo sapiens, UniProt P52333); assay: JAK3 inhibition assay (33P incorporation into poly(Glu)4Tyr)
T1 sequence (P52333 1-1124): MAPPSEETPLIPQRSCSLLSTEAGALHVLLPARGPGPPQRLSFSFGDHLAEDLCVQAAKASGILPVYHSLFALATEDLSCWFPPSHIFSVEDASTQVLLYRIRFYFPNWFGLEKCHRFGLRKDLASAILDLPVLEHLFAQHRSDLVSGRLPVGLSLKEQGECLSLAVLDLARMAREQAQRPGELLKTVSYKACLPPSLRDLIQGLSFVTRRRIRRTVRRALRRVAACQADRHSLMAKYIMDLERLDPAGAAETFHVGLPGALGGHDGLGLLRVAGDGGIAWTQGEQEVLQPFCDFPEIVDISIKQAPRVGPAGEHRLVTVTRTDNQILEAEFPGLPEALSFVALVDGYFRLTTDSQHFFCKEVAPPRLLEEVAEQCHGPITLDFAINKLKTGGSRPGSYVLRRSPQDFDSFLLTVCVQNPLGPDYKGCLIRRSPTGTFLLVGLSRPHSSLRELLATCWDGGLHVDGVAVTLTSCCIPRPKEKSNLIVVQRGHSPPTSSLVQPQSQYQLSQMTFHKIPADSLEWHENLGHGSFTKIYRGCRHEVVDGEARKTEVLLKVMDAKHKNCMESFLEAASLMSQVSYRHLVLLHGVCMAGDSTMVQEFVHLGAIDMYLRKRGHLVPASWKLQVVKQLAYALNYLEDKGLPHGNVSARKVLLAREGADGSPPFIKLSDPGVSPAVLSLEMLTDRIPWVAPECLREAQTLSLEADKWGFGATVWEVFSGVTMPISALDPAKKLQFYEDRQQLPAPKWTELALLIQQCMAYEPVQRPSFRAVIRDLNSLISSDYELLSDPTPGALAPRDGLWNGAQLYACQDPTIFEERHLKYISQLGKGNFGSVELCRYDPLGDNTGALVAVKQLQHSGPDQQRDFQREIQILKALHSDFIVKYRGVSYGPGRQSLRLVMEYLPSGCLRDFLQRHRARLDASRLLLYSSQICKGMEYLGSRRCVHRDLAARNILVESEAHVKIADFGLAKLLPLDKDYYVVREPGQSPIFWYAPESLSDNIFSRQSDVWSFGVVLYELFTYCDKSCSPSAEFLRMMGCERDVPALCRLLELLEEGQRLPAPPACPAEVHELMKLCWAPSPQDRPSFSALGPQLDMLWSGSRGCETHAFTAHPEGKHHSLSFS
How it was run: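 After TCA quench and filter harvest, scintillation counting of 33P measured phosphorylation of poly(Glu)4Tyr (1 μM) by 1 nM JAK3. The 20-min, 25° C. reaction contained 5 μM ATP (200 μCi/μmole) in pH 7.4 HEPES buffer with 10 mM MgCl2.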

JAK2, sequence (O60674 whole entry): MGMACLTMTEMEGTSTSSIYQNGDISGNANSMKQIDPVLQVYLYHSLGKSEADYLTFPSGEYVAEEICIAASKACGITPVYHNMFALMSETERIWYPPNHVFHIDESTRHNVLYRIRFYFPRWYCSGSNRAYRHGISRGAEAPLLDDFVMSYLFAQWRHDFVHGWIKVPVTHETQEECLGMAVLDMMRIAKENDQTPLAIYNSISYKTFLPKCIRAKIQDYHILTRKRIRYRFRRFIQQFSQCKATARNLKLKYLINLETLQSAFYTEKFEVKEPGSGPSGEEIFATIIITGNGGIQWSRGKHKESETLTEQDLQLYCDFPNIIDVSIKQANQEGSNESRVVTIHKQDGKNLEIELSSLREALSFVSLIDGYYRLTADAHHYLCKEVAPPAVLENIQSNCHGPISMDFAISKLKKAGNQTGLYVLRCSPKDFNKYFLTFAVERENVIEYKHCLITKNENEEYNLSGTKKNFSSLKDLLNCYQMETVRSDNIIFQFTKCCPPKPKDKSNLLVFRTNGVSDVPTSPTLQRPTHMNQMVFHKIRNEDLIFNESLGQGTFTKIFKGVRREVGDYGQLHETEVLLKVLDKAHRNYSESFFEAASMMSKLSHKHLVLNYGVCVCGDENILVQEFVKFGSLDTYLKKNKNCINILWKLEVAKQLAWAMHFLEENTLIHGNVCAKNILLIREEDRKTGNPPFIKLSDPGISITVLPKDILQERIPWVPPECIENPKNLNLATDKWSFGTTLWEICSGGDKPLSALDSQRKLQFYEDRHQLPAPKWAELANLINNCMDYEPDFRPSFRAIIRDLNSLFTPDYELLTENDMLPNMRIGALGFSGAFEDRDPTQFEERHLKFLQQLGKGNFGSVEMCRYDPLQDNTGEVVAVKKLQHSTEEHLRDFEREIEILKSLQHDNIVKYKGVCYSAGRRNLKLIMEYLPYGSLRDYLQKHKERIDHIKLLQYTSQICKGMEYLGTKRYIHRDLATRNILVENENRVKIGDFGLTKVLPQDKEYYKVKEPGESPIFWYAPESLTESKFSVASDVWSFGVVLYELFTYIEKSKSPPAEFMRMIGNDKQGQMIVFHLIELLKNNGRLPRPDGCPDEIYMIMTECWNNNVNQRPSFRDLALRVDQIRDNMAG
ROCK I, sequence (Q13464 whole entry): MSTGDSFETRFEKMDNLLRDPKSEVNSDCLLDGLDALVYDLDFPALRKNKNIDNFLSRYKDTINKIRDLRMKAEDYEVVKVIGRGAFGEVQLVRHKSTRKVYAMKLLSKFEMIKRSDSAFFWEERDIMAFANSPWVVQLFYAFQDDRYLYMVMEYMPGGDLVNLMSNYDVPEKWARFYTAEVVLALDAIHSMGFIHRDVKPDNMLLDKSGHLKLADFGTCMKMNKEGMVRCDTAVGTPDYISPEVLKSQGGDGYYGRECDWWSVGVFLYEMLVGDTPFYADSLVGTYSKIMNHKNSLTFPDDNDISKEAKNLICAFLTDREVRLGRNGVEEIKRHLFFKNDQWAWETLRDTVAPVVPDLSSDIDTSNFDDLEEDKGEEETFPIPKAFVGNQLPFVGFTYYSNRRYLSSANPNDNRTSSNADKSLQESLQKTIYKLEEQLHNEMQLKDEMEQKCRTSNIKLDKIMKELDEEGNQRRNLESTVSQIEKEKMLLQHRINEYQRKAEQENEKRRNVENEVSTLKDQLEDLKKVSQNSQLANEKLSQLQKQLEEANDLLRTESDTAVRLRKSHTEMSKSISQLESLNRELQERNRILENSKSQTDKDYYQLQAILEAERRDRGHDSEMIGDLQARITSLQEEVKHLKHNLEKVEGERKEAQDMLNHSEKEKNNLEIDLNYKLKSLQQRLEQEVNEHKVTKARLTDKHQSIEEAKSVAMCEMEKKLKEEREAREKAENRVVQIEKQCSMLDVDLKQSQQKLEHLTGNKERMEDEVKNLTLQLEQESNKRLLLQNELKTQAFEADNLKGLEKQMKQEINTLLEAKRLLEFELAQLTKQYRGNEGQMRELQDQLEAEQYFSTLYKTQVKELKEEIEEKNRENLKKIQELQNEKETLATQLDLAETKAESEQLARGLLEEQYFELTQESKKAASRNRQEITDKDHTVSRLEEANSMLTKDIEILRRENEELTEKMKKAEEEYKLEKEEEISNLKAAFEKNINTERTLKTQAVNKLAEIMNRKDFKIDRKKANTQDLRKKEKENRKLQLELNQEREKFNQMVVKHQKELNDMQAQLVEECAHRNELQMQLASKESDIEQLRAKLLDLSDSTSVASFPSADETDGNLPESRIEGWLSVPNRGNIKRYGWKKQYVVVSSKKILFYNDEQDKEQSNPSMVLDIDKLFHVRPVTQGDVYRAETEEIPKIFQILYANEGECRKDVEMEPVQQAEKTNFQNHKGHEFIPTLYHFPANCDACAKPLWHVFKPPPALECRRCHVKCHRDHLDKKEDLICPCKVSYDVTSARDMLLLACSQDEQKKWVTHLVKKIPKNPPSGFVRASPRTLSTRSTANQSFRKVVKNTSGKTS

Compound	Ki (JAK2)	Ki (ROCK I)	Ki (JAK3)
O=C(NCC(F)(F)F)[C@@H]1CCCN1c1nc(-c2ccnc3[nH]ccc23)ncc1F [compound 199]	0.5 to 5 µM	> 4 µM	< 0.5 µM
C[C@@H](Nc1nc(-c2ccnc3[nH]ccc23)nc2ccccc12)C(=O)NCC(F)(F)F [compound 200]	0.5 to 5 µM	> 4 µM	0.5 to 5 µM
C[C@@H](Nc1nc(-c2ccnc3[nH]ccc23)ncc1F)C(=O)NCC(F)(F)F [compound 201]	0.5 to 5 µM	> 4 µM	< 0.5 µM
C[C@@H](Nc1ccnc(-c2ccnc3[nH]ccc23)n1)C(=O)NCC(F)(F)F [compound 202]	0.5 to 5 µM	> 4 µM	< 0.5 µM
Nc1nc(-c2ccnc3[nH]ccc23)ncc1F [compound 203]	0.5 to 5 µM	> 4 µM	0.5 to 5 µM
O=C(NCC(F)(F)F)[C@H](CO)Nc1nc(-c2ccnc3[nH]ccc23)ncc1F [compound 204]	0.5 to 5 µM	0.5 to 5 µM	< 0.5 µM
COc1ccc(F)cc1-c1ccnc2[nH]ccc12 [compound 205]	0.5 to 5 µM	0.5 to 5 µM	0.5 to 5 µM
FC(F)(F)Oc1ccccc1-c1ccnc2[nH]ccc12 [compound 206]	0.5 to 5 µM	> 4 µM	0.5 to 5 µM
Fc1ccc(-c2ccnc3[nH]ccc23)c(F)c1 [compound 207]	0.5 to 5 µM	0.5 to 5 µM	< 0.5 µM
FC(F)(F)c1ccccc1-c1ccnc2[nH]ccc12 [compound 208]	> 5 µM	0.5 to 5 µM	> 5 µM
Cc1ccc(C)c(-c2ccnc3[nH]ccc23)c1 [compound 209]	> 5 µM	< 0.5 µM	> 5 µM
Clc1ccc(-c2ccnc3[nH]ccc23)c(Cl)c1 [compound 210]	0.5 to 5 µM	< 0.5 µM	0.5 to 5 µM
Clc1ccc(Cl)c(-c2ccnc3[nH]ccc23)c1 [compound 211]	0.5 to 5 µM	< 0.5 µM	0.5 to 5 µM
Cc1cccc(-c2ccnc3[nH]ccc23)c1C [compound 212]	0.5 to 5 µM	0.5 to 5 µM	0.5 to 5 µM
CC(=O)c1ccccc1-c1ccnc2[nH]ccc12 [compound 213]	> 5 µM	> 4 µM	> 5 µM
N#Cc1ccccc1-c1ccnc2[nH]ccc12 [compound 214]	> 5 µM	0.5 to 5 µM	0.5 to 5 µM
O=C(NCC(F)(F)F)[C@H]1CCCCN1c1ccnc(-c2ccnc3[nH]ccc23)n1 [compound 215]	0.5 to 5 µM	> 4 µM	< 0.5 µM
Clc1ccccc1-c1ccnc2[nH]ccc12 [compound 216]	0.5 to 5 µM	0.5 to 5 µM	0.5 to 5 µM
Cc1cccc(C)c1-c1ccnc2[nH]ccc12 [compound 217]	> 5 µM	> 4 µM	> 5 µM
Cc1ccc(-c2ccnc3[nH]ccc23)c(C)c1 [compound 218]	> 5 µM	< 0.5 µM	0.5 to 5 µM
Cc1ccccc1-c1ccnc2[nH]ccc12 [compound 219]	> 5 µM	0.5 to 5 µM	0.5 to 5 µM
COc1ccc(-c2ccnc3[nH]ccc23)c(OC)c1 [compound 220]	0.5 to 5 µM	0.5 to 5 µM	0.5 to 5 µM
COc1ccc(OC)c(-c2ccnc3[nH]ccc23)c1 [compound 221]	> 5 µM	0.5 to 5 µM	> 5 µM
COc1cccc(OC)c1-c1ccnc2[nH]ccc12 [compound 222]	> 5 µM	> 4 µM	> 5 µM
CCOc1ccccc1-c1ccnc2[nH]ccc12 [compound 223]	0.5 to 5 µM	0.5 to 5 µM	0.5 to 5 µM

Compound	Ki (JAK2)	Ki (ROCK I)	Ki (JAK3)
Clc1cccc(-c2ccnc3[nH]ccc23)c1Cl [compound 224]	0.5 to 5 µM	< 0.5 µM	0.5 to 5 µM
c1ccc(COc2ccccc2-c2ccnc3[nH]ccc23)cc1 [compound 225]	> 5 µM	> 4 µM	> 5 µM
c1ccc(-c2ccccc2-c2ccnc3[nH]ccc23)cc1 [compound 226]	> 5 µM	> 4 µM	> 5 µM
c1cnc2c(-c3ccnc4[nH]ccc34)cccc2c1 [compound 227]	> 5 µM	> 4 µM	> 5 µM
O=C1NCCCC[C@@H]1Nc1c(Cl)cnc2[nH]ccc12 [compound 228]	< 0.5 µM	> 4 µM	< 0.5 µM
CC1CCC(Nc2c(Cl)cnc3[nH]ccc23)CC1 (stereo not drawn) [compound 229]	< 0.5 µM	0.5 to 5 µM	< 0.5 µM
CC(C)Oc1ccccc1-c1ccnc2[nH]ccc12 [compound 230]	0.5 to 5 µM	> 4 µM	0.5 to 5 µM
CCc1ccccc1-c1ccnc2[nH]ccc12 [compound 231]	0.5 to 5 µM	0.5 to 5 µM	0.5 to 5 µM
CC(C)(C)OCc1ccccc1-c1ccnc2[nH]ccc12 [compound 232]	> 5 µM	> 4 µM	> 5 µM
COc1cccc(-c2ccnc3[nH]ccc23)c1OC [compound 233]	> 5 µM	0.5 to 5 µM	0.5 to 5 µM
CCCOc1ccccc1-c1ccnc2[nH]ccc12 [compound 234]	> 5 µM	> 4 µM	0.5 to 5 µM
COc1ccc(Cl)cc1-c1ccnc2[nH]ccc12 [compound 235]	0.5 to 5 µM	0.5 to 5 µM	0.5 to 5 µM
Fc1ccccc1-c1ccnc2[nH]ccc12 [compound 236]	0.5 to 5 µM	< 0.5 µM	< 0.5 µM
CCOc1ccc(Cl)cc1-c1ccnc2[nH]ccc12 [compound 237]	0.5 to 5 µM	0.5 to 5 µM	> 5 µM
O=C(O)c1ccccc1-c1ccnc2[nH]ccc12 [compound 238]	> 5 µM	> 4 µM	> 5 µM
CSc1ccccc1-c1ccnc2[nH]ccc12 [compound 239]	0.5 to 5 µM	0.5 to 5 µM	0.5 to 5 µM
c1ccc(Oc2ccccc2-c2ccnc3[nH]ccc23)cc1 [compound 240]	> 5 µM	> 4 µM	> 5 µM
CCCCOc1ccccc1-c1ccnc2[nH]ccc12 [compound 241]	> 5 µM	> 4 µM	> 5 µM
Cc1cc(C)c(-c2ccnc3[nH]ccc23)c(C)c1 [compound 242]	> 5 µM	> 4 µM	> 5 µM
Cc1cc(F)ccc1-c1ccnc2[nH]ccc12 [compound 243]	> 5 µM	0.5 to 5 µM	0.5 to 5 µM
Cc1ccc(F)c(-c2ccnc3[nH]ccc23)c1Cl [compound 244]	> 5 µM	0.5 to 5 µM	0.5 to 5 µM
COc1cccc(Cl)c1-c1ccnc2[nH]ccc12 [compound 245]	> 5 µM	> 4 µM	> 5 µM
c1ccc2c(c1)Oc1c(cccc1-c1ccnc3[nH]ccc13)S2 [compound 246]	> 5 µM	> 4 µM	> 5 µM
CS(=O)(=O)Nc1ccccc1-c1ccnc2[nH]ccc12 [compound 247]	> 5 µM	> 4 µM	> 5 µM
Oc1ccccc1-c1ccnc2[nH]ccc12 [compound 248]	0.5 to 5 µM	0.5 to 5 µM	0.5 to 5 µM
